Consider twelve molecules from article PMC11765156 (International Journal of Molecular Sciences, 2025).

Values after ≈ are worked out from the molar mass of the structure shown.

For one data set, the system named is Balanus amphitrite. The data set can be described thus: Anti-settlement assay with barnacle cyprid larvae (settlement inhibition and mortality, 48 h). In kind it is in vivo. The settings on record: for EC50: Amphibalanus amphitrite, read-out: EC50 (inhibition of barnacle larval settlement); for LC50/EC50: Balanus amphitrite, ratio >15 indicating low toxicity. How it is done: (§1) Compounds dissolved in DMSO were sequentially administered to the wells, starting with a concentration of 25 µg/mL and proceeding with serial half-logarithmic dilutions. The volume of the compound in each well was maintained at […], with seawater as the blank control, DMSO as the negative control, and SeaNine 211 serving as the positive control. Utilizing a stereo microscope, a 1 mL micropipette was employed to introduce 995 μL of seawater and between 21 and 25 cyprid larvae into each well of a 24-well plate. Subsequently, the plates were incubated in a darkened, temperature-controlled environment for 48 h. […] This observation facilitated the calculation of mortality and settlement rates of the barnacle cyprids, crucial for assessing the antifouling properties of the compounds. The determination of EC50 values for the inhibition of barnacle larval attachment and LC50 values for larval mortality offered an evaluation of the compounds’ efficacy in deterring barnacle larval adherence and their associated toxicity.

Test in data set [1]: as above
In kind it is in vivo, Balanus amphitrite. The settings on record: in vivo, other: larvae immersed in seawater containing the compound; Balanus amphitrite cyprid larvae, 48 h incubation; read-out: LC50 (larval mortality). The method, then: as §1

Data set [2] is described as follows: Zebrafish embryo toxicity assay. In kind it is in vivo. Particulars: in vivo, other: embryos immersed in compound solution in wells, 48 h exposure, read-out: LC50 at 48 h post-fertilization. The method, then:
(§2) The zebrafish embryo toxicity assay was conducted according to the method described by Huang et al., with slight modifications. Test compounds were dissolved in 0.5% DMSO to prepare a concentration series (0.1, 1, 5, 25, 50 μg/mL), which was then dispensed into 24-well plates. Fifteen cleavage-stage embryos were added to each well. The plates were incubated at 28 °C, and embryonic development was evaluated under a stereomicroscope after 48 h of exposure.

The test system of a further data set is zebrafish embryos. Put plainly: Zebrafish embryo toxicity assay. It counts as in vivo. Particulars: for phenotype of zebrafish embryos versus control: 48 h. The method, then: as §2
The subject of data set [3] is Balanus amphitrite cyprid larvae. The data set can be described thus: Rescue (resuscitation) assay of Balanus amphitrite cyprid larvae. In kind it is in vivo. The settings on record: 1 μg/mL for 24 h, rinsed, settlement observed after 48 h.
The mark [4] stands for this setting: Balanus amphitrite cyprid larvae, 48 h incubation.

The term EC50 denotes the concentration at which the effect is half-maximal. In general, LC50 refers to the concentration that kills 50% of the test population. In the case of `COC(=O)C12OCC34C(CC5C(C)=C(O)C(=O)CC5(C)C3C(O)C1O)OC(=O)C(OC(=O)CCCCCl)C24` (stereo not shown) [Compound 2, 15-O-(5′-Chlorovaleryl)-Bruceolide], the half-maximal effective concentration (EC50) in the data set on Balanus amphitrite (setting [4]) was 0.417 ± 0.185 µg/mL (≈ 0.748 µM). The LC50/EC50 in the data set on Balanus amphitrite was determined as 2.6978. The LC50 at 48 h in data set [1] turned out to be 1.12 ± 0.144 µg/mL (≈ 2.02 µM).

Take `COC(=O)C12OCC34C(CC5C(C)=C(O)C(=O)CC5(C)C3C(O)C1O)OC(=O)C(OC(=O)Cc1cccc(F)c1)C24` (stereo not shown) [Compound 8, 15-O-(5′-Fluorophenylacetyl)-Bruceolide]: the EC50 with Balanus amphitrite (setting [4]) stood at 1.12 ± 0.103 µg/mL (≈ 1.95 µM). The LC50/EC50 with Balanus amphitrite amounted to 5.2723. In data set [1], the LC50 at 48 h was determined as 5.91 ± 1.03 µg/mL (≈ 10.3 µM).

With `COC(=O)C12OCC34C(CC5C(C)=C(O)C(=O)CC5(C)C3C(O)C1O)OC(=O)C(OC(=O)CCC#N)C24` (stereo not shown) [Compound 12, 15-O-(3′-Cyanopropanoyl)-Bruceolide], the concentration giving a half-maximal response (EC50) in the data set on Balanus amphitrite (setting [4]) was found to be 1.39 ± 0.135 µg/mL (≈ 2.67 µM). The LC50/EC50 in the data set on Balanus amphitrite amounted to 2.0219. For the same molecule, the LC50 at 48 h in data set [1] is 2.8 ± 0.122 µg/mL (≈ 5.39 µM).

As for `COC(=O)C12OCC34C(CC5C(C)=C(O)C(=O)CC5(C)C3C(O)C1O)OC(=O)C(OC(=O)CCCCBr)C24` (stereo not shown) [Compound 1, 15-O-(5′-Bromovaleryl)-Bruceolide], the EC50 in the data set on Balanus amphitrite (setting [4]) came to 0.523 ± 0.123 µg/mL (≈ 0.87 µM). Moreover, the median lethal concentration (LC50) at 48 h in data set [1] was 0.842 ± 0.112 µg/mL (≈ 1.4 µM).

As to `COC(=O)C12OCC34C(CC5C(C)=C(O)C(=O)CC5(C)C3C(O)C1O)OC(=O)C(OC(=O)c1ccc(C(C)=O)s1)C24` (stereo not shown) [Compound 14, 15-O-(3′-Acetyl-Thiophen-6′-Carbonyl)-Bruceolide], the 50% effective concentration (EC50) in the data set on Balanus amphitrite (setting [4]) turned out to be 2.15 ± 0.727 µg/mL (≈ 3.63 µM). Also, in the data set with Balanus amphitrite, the LC50/EC50 stood at 3.6926. Moreover, the median lethal concentration (LC50) at 48 h in data set [1] came to 7.92 ± 0.243 µg/mL (≈ 13.4 µM).

As to `COC(=O)C12OCC34C(CC5C(C)=C(O)C(=O)CC5(C)C3C(O)C1O)OC(=O)C(OC(=O)CCCCl)C24` (stereo not shown) [Compound 3, 15-O-(4′-Chlorobutanoyl)-Bruceolide], the 50% effective concentration (EC50) with Balanus amphitrite (setting [4]) came to 0.147 ± 0.0332 µg/mL (≈ 0.272 µM). In addition, the LC50/EC50 in the data set on Balanus amphitrite came out at 42.2922. Moreover, in data set [1], the LC50 at 48 h was 6.24 ± 2.62 µg/mL (≈ 11.5 µM). Besides, the LC50 at 48 h in data set [2] was 15.8 µg/mL (≈ 29 µM). The “phenotype of zebrafish embryos versus control” value with zebrafish embryos was “no significant phenotypic differences”. In data set [3], the recovery rate result is “high recovery rates” and the resuscitation rate is recorded as 71.11%.

Regarding `COC(=O)C12OCC34C(CC5C(C)=C(O)C(=O)CC5(C)C3C(O)C1O)OC(=O)C(OC(=O)c1ccc(Cl)nc1)C24` (stereo not shown) [Compound 6], in the data set with Balanus amphitrite (setting [4]), the EC50 was found to be 0.34 ± 0.104 µg/mL (≈ 0.589 µM). Moreover, the LC50/EC50 in the data set with Balanus amphitrite is 16.9633. Further, the LC50 at 48 h in data set [1] is 5.77 ± 2.54 µg/mL (≈ 9.98 µM); in data set [2] it was 8.18 µg/mL (≈ 14.2 µM). In addition, in the data set with zebrafish embryos, the “phenotype of zebrafish embryos versus control” value was “no significant phenotypic differences”. Besides, the recovery rate result in data set [3] was “high recovery rates”.

Turning to `COC(=O)C12OCC34C(CC5C(C)=C(O)C(=O)CC5(C)C3C(O)C1O)OC(=O)C(OC(=O)Cc1cccc(C#N)c1)C24` (stereo not shown) [Compound 13, 15-O-(5′-Cyano-Phenyl-3′-Acetyl)-Bruceolide], the concentration for a half-maximal effect (EC50) with Balanus amphitrite (setting [4]) worked out at 1.84 ± 0.179 µg/mL (≈ 3.17 µM). Moreover, the LC50/EC50 in the data set on Balanus amphitrite is 3.5854. In addition, the median lethal concentration (LC50) at 48 h in data set [1] came to 6.61 ± 0.112 µg/mL (≈ 11.4 µM).

In the case of `CCCCCCCCn1sc(Cl)c(Cl)c1=O` [SeaNine 211, reference compound], in the data set with Balanus amphitrite (setting [4]), the “EC50 (inhibition of barnacle larval settlement)” value was determined as 1.9363 ± 0.4128 µg/mL and the “LC50 (larval mortality)” value was determined as 33.9306 ± 2.0625 µg/mL (≈ 120 µM). The “LC50 at 48 h post-fertilization” value in the data set on zebrafish embryos (48 h exposure) turned out to be 7.2236 µg/mL (≈ 25.6 µM).

Consider `COC(=O)C12OCC34C(CC5C(C)=C(O)C(=O)CC5(C)C3C(O)C1O)OC(=O)C(OC(=O)c1ccc(Cl)cc1)C24` (stereo not shown) [Compound 4], for which the EC50 in the data set on Balanus amphitrite (setting [4]) amounted to 0.353 ± 0.101 µg/mL (≈ 0.611 µM). Also, the LC50/EC50 in the data set on Balanus amphitrite was 2.1018. The median lethal concentration (LC50) at 48 h in data set [1] is 0.741 ± 0.082 µg/mL (≈ 1.28 µM).

For `COC(=O)C12OCC34C(CC5C(C)=C(O)C(=O)CC5(C)C3C(O)C1O)OC(=O)C(OC(=O)c1ccc(Cl)s1)C24` (stereo not shown) [Compound 5], the EC50 with Balanus amphitrite (setting [4]) was determined as 2.02 ± 0.237 µg/mL (≈ 3.47 µM). Besides, the LC50/EC50 in the data set on Balanus amphitrite turned out to be 3.0330. Besides, in data set [1], the median lethal concentration (LC50) at 48 h was 6.14 ± 0.173 µg/mL (≈ 10.5 µM).

In the case of brusatol [B1, reference compound], the “EC50 (inhibition of barnacle larval settlement)” value with Balanus amphitrite (setting [4]) amounted to 2.7826 ± 0.6874 µg/mL.
